Measurements published in US20240408093A1, “HETEROBIFUNCTIONAL COMPOUNDS AND THEIR USE IN TREATING DISEASE” (HALDA THERAPEUTICS OPCO, INC., priority 2022, published 2024).
Where two headings read alike, the source gives them in different places.

Legend:
Assay type in all cases: cell-based
[1] = molecular target: T1, GSPT1 (Homo sapiens, UniProt P15170+Q96SW2); experiment: GSPT1 HiBiT degradation assay; details: HEK293 LgBiT GSPT1 HiBiT cells, 6 hours
T1 construct: host or cells: HEK293 LgBiT / GSPT1 HiBiT CRISPR knock-in
T1 sequence (P15170 whole entry): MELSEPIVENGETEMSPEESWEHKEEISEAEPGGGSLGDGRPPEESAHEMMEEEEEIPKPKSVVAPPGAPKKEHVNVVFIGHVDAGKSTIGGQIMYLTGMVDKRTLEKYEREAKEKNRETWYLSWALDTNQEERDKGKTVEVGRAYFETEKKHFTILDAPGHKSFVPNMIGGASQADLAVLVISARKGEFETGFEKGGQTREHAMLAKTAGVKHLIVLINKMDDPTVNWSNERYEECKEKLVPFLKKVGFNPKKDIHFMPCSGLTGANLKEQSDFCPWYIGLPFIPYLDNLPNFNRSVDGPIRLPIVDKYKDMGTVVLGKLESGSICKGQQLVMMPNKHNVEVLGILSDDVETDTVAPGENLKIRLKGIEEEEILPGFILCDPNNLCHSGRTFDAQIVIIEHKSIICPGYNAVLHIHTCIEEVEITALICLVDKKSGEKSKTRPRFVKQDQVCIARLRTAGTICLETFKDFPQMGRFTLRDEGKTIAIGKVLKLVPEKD
T1 sequence (Q96SW2 whole entry): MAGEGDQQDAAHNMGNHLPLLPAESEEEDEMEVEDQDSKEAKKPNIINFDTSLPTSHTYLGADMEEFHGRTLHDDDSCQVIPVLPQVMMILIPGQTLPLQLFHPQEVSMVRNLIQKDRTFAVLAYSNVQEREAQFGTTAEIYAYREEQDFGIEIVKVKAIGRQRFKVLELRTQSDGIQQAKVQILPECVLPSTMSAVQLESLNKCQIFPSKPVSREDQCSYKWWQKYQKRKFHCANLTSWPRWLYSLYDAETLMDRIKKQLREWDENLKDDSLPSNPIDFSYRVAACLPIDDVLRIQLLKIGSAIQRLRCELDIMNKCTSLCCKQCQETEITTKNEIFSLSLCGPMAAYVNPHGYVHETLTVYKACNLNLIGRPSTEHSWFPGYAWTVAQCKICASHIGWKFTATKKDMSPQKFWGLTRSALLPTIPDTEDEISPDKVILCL
T1 sequence (Q16531 whole entry partner): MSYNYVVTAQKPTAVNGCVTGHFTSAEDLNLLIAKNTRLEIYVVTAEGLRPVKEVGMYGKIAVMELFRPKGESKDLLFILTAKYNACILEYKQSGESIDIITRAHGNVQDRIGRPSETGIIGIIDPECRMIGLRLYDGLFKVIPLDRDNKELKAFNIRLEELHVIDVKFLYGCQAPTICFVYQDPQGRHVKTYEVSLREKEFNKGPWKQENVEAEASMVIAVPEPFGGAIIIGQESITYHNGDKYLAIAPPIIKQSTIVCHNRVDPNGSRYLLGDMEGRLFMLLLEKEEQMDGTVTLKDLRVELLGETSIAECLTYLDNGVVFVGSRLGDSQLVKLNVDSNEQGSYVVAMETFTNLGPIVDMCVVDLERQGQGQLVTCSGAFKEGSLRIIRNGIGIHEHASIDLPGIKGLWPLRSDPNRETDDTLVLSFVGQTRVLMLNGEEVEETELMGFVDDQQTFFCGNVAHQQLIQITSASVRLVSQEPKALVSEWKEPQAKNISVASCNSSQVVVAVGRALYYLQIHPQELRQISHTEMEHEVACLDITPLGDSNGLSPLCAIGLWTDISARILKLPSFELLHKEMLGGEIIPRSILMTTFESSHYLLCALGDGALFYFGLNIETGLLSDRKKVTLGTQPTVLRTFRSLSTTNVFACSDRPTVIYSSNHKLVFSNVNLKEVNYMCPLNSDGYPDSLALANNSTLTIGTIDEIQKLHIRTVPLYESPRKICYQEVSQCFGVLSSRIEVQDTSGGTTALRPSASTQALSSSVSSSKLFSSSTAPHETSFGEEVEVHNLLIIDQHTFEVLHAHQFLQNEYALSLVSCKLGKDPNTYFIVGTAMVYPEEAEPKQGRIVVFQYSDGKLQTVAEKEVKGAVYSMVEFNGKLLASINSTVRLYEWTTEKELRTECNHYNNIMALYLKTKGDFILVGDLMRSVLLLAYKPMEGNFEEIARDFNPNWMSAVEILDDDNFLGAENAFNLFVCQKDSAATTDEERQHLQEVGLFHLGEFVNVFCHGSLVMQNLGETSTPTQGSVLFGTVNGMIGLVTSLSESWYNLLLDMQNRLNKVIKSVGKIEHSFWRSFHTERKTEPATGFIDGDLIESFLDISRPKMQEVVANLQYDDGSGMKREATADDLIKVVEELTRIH
Summary of the method: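 HEK293 CRISPR knock-in cells expressing LgBiT and GSPT1-HiBiT were seeded at 1000 cells/well and, after 18-24 h, treated with titrated compound plus endurazine (0.5× final) at 37 °C. Luminescence read after 6 h; loss of signal reflects GSPT1 degradation, giving DC50.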

[2] = system: HEK293 cells (ATCC CRL-1573); experiment: Cellular growth inhibition assay, HEK293 cells (Example 16); details: Homo sapiens, 72 hours, CellTiter-Glo 2.0
[3] = system: HeLa cells (ATCC CCL-2); experiment: Cellular growth inhibition assay, HeLa cells (Example 16); details: Homo sapiens, 72 hours, CellTiter-Glo 2.0
[4] = system: GSPT1; experiment: Payload release assay (DC50 readout), GSPT1 degradation in the presence of recombinant target protein; details: I-series compounds (GSPT1 readout inferred)
Description: Exemplary compounds were tested for ability to cause degradation of CCNK or GSPT1 in the presence of recombinant target protein.
HEK293 LgBiT/GSPT1 HiBiT CRISPR Knock-in cells (Promega) were cultured in DMEM (Gibco 11995), supplemented with 10% Heat-inactivated FBS (Gibco A38400-01) and 1% Penicillin/Streptomycin (Gibco 15140-122) and 200 Vg/ml Hygromycin B (Gibco 10-687-010) at 37° C. with 5% CO2 in a humidified tissue culture incubator. HEK293 LgBiT/CCNK HiBiT cells (in-house, described above) were cultured in DMEM (Gibco 11995), supplemented with 10% Heat-inactivated FBS (Gibco A38400-01) and 1% Penicillin/Streptomycin (Gibco 15140-122) 200 Vg/ml Hygromycin B (Gibco 10-687-010), and 1 Vg/ml Puromycin Dihydrochloride (Thermo A1113803) at 37° C. with 5% CO2 in a humidified tissue culture incubator. Cells were seeded (1000 cells/well for HEK293 LgBiT/GSPT1 HiBiT cells or 3000 cells/well for HEK293 LgBiT/CCNK HiBiT cells) 384-well, tissue culture-treated white plates (Perkin Elmer 6007680) in 10 μL media lacking selection for 18-24 hours. Plates were spun at 300 g for 30 seconds and stored in the incubator overnight. After 24 hours, a 5 μL aliquot of recombinant target protein (final concentration of either 5 μM KRAS amino acids 1-169, C51S, C80L, C118S, G12C or 3 μM EGFR amino acids 696-1022 or 3 μM EGFR amino acids 696-1022, T790M, L858R) was added to wells, followed immediately by a 5 μL aliquot of 4× compound-containing medium supplemented with Endurazine Substrate (Promega N2570) was added in each well, at a final top concentration of 10 μM test compound and 0.5× Endurazine, with 4-fold dilutions, using DMSO alone as a negative control. Plates were then spun at 300×g for 3 minutes again and cultured at 37° C. with 5% CO2. After 6 hours the plate was read on Envision MultiMode Plate Reader 2105 (Perkin Elmer) to measure luminescence signal. Data was normalized to DMSO treated cell wells. A four-parameter non-linear regression curve fit was applied to dose-response data in Prism to determine the half maximal growth inhibitory concentration (GI50) of each compound.

[5] = 0 μM recombinant KRAS G12C, read-out: DC50 at 0 μM KRAS G12C
[6] = 5 μM recombinant KRAS G12C, read-out: DC50 at 5 μM KRAS G12C
[7] = 0 μM recombinant EGFR T790M L858R, read-out: DC50 at 0 μM EGFR T790M L858R
[8] = 0 μM recombinant EGFR WT, read-out: DC50 at 0 μM EGFR WT
[9] = 3 μM recombinant EGFR T790M L858R, read-out: DC50 at 3 μM EGFR T790M L858R
[10] = 3 μM recombinant EGFR WT, read-out: DC50 at 3 μM EGFR WT

SMILES | DC50 [1] [nM] | GI50 [2] [nM] | GI50 [3] [nM] | DC50 [4, 5] [nM] | DC50 [4, 6] [nM] | DC50 [4, 7] [nM] | DC50 [4, 8] [nM] | DC50 [4, 9] [nM] | DC50 [4, 10] [nM]
C=C(COc1ccc(Cl)cc1NC(=O)NCc1ccc2c(c1)CN(C1CCC(=O)NC1=O)C2=O)C(=O)N1CCN(c2nc(OC[C@@H]3CCCN3C)nc3c2CCN(c2cccc4cccc(Cl)c24)C3)C[C@@H]1CC#N (stereo partly shown) [Compound I-52] | 500 to 2500 | 500 to 1500 | 1500 to 10000 | 250 to 5000 | < 250 |  |  |  | 
C=C(COc1cc(Cl)cc(NC(=O)NCc2ccc3c(c2)CN(C2CCC(=O)NC2=O)C3=O)c1)C(=O)N1C[C@H](COc2nc(Nc3cnn(C)c3)nc3[nH]cc(Cl)c23)[C@@H](OC)C1 (stereo partly shown) [Compound I-54] | < 50 | 500 to 1500 | 1500 to 10000 |  |  | < 250 | < 250 | < 250 | < 250
C=C(COc1cc(Cl)cc(NC(=O)NCc2ccc3c(c2)CN(C2CCC(=O)NC2=O)C3=O)c1)C(=O)Nc1cccc(Oc2nc(Nc3ccc(N4CCN(C)CC4)cc3)nc3ccsc23)c1 (stereo not shown) [Compound I-55] | 50 to 500 | 500 to 1500 | 1500 to 10000 |  |  | < 250 | < 250 | < 250 | 250 to 5000
C=C(COc1cc(Cl)cc(NC(=O)NCc2ccc3c(c2)CN(C2CCC(=O)NC2=O)C3=O)c1)C(=O)N1CC2(CC(n3nc(-c4ccc5c(cnn5C)c4)c(-c4c(Cl)c(C)cc5[nH]ncc45)c3C)C2)C1 (stereo not shown) [Compound I-56] | > 2500 | 500 to 1500 | < 500 | < 250 | < 250 |  |  |  | 
C=C(CN(C)c1cccc(NC(=O)NCc2ccc3c(c2)CN(C2CCC(=O)NC2=O)C3=O)c1)C(=O)N1CCN(c2nc(OC[C@@H]3CCCN3C)nc3c2CCN(c2cccc4cccc(Cl)c24)C3)C[C@@H]1CC#N (stereo partly shown) [Compound I-58] | > 2500 | 1500 to 10000 | 1500 to 10000 | > 10000 | 5000 to 10000 |  |  |  | 
C=C(COc1cc(Cl)cc(NC(=O)NCc2ccc3c(c2)CN(C2CCC(=O)NC2=O)C3=O)c1)C(=O)Nc1cc(Nc2nccc(-c3cn(C)c4ccccc34)n2)c(OC)cc1N(C)CCN(C)C (stereo not shown) [Compound I-59] | 50 to 500 | < 500 | 1500 to 10000 |  |  | < 250 | < 250 | < 250 | < 250
C=C(COc1c(Cl)cccc1NC(=O)NCc1ccc2c(c1)CN(C1CCC(=O)NC1=O)C2=O)C(=O)Nc1cc(Nc2nccc(-c3cn(C)c4ccccc34)n2)c(OC)cc1N(C)CCN(C)C (stereo not shown) [Compound I-60] | 500 to 2500 | 500 to 1500 | 1500 to 10000 |  |  | 250 to 5000 | 250 to 5000 | 250 to 5000 | 250 to 5000
C=C(COc1cc(Cl)cc(NC(=O)NCc2ccc3c(c2)CN(C2CCC(=O)NC2=O)C3=O)c1)C(=O)Nc1cccc(-c2cccc3cnc(Nc4ccc(N5CCN(CCO)CC5)c(F)c4F)nc23)c1 (stereo not shown) [Compound I-61] | 50 to 500 | < 500 | 1500 to 10000 |  |  | < 250 | < 250 | < 250 | < 250
C=C(COc1cc(F)c(F)cc1NC(=O)NCc1ccc2c(c1)CN(C1CCC(=O)NC1=O)C2=O)C(=O)N1CCN(c2nc(OC[C@@H]3CCCN3C)nc3c2CCN(c2cccc4cccc(Cl)c24)C3)C[C@@H]1CC#N (stereo partly shown) [Compound I-62] | 500 to 2500 | > 10000 | > 10000 | 250 to 5000 | < 250 |  |  |  | 
C=C(COc1ccccc1CNC(=O)NCc1ccc2c(c1)CN(C1CCC(=O)NC1=O)C2=O)C(=O)N1CCN(c2nc(OC[C@@H]3CCCN3C)nc3c2CCN(c2cccc4cccc(Cl)c24)C3)C[C@@H]1CC#N (stereo partly shown) [Compound I-63] | > 2500 | > 10000 | > 10000 | > 10000 | > 10000 |  |  |  | 
C=C(COc1cc(Cl)cc(NC(=O)NCc2cc3c(cc2F)C(=O)N(C2CCC(=O)NC2=O)C3)c1)C(=O)N1CCN(c2nc(OC[C@@H]3CCCN3C)nc3c2CCN(c2cccc4cccc(Cl)c24)C3)C[C@@H]1CC#N (stereo partly shown) [Compound I-64] | 500 to 2500 | 500 to 1500 | > 10000 | 250 to 5000 | < 250 |  |  |  | 
C=C(COc1cc(Cl)c(OC)cc1NC(=O)NCc1ccc2c(c1)CN(C1CCC(=O)NC1=O)C2=O)C(=O)N1CC2(CC(n3nc(-c4ccc5c(cnn5C)c4)c(-c4c(Cl)c(C)cc5[nH]ncc45)c3C)C2)C1 (stereo not shown) [Compound I-66] | 50 to 500 | < 500 | 500 to 1500 | < 250 | < 250 |  |  |  | 
C=C(COc1cc(NC(=O)NCc2ccc3c(c2)CN(C2CCC(=O)NC2=O)C3=O)cc(OC)c1)C(=O)N1CC2(CC(n3nc(-c4ccc5c(cnn5C)c4)c(-c4c(Cl)c(C)cc5[nH]ncc45)c3C)C2)C1 (stereo not shown) [Compound I-67] | 500 to 2500 | > 10000 | > 10000 | 250 to 5000 | 250 to 5000 |  |  |  | 
C=C(COc1cc(NC(=O)NCc2ccc3c(c2F)CN(C2CCC(=O)NC2=O)C3=O)cc(C(F)(F)F)c1)C(=O)N1CC2(CC(n3nc(-c4ccc5c(cnn5C)c4)c(-c4c(Cl)c(C)cc5[nH]ncc45)c3C)C2)C1 (stereo not shown) [Compound I-68] | > 2500 | < 500 | > 10000 | > 10000 | > 10000 |  |  |  | 
C=C(COc1c(Cl)cccc1NC(=O)NCc1ccc2c(c1)CN(C1CCC(=O)NC1=O)C2=O)C(=O)N[C@@H]1CN(c2nc(Nc3cn(C)nc3OC)c3ncn(C)c3n2)C[C@H]1F (stereo partly shown) [Compound I-69] | 50 to 500 | < 500 | 500 to 1500 |  |  | < 250 | < 250 | < 250 | < 250
C=C(CN(C(=O)NCc1ccc2c(c1)CN(C1CCC(=O)NC1=O)C2=O)c1ccc(C)c(Cl)c1)C(=O)Nc1cccc(Oc2nc(Nc3ccc(N4CCN(C)CC4)cc3)nc3ccsc23)c1 (stereo not shown) [Compound I-70] | > 2500 | 1500 to 10000 | > 10000 |  |  | 250 to 5000 | 250 to 5000 | 250 to 5000 | 250 to 5000
